Activity, IC50 and IC90 data for 16 compounds are collected here from ChEMBL document CHEMBL6127120, “Antiplasmodial and Insecticidal Activities of Third-Generation Ivermectin Hybrids” (J Med Chem, 2024).

Calls of active or inactive are those of the source. No cut-off for these calls is given here.

Common to all, as to assay type: functional, organism-based
Assay [1] has as its system Plasmodium berghei. Kind of assay: Anti-plasmodial activity against pre-erythrocytic stage Plasmodium berghei infected in human Huh-7 cells at 10 to 500 nM by bioluminescence assay. The note with it: dose 10-500 nM.
Assay [2] has as its system Plasmodium berghei. As to the kind of experiment: Anti-plasmodial activity against pre-erythrocytic stage Plasmodium berghei infected in human Huh-7 cells by bioluminescence assay.
Another assay deals with Plasmodium falciparum. As to the kind of experiment: Anti-plasmodial activity against erythrocytic stage Plasmodium falciparum NF54 in […] measured after 48 hrs by SYBR green dye based flow cytometry. The note with it: NF54, 48 h.
The next assay relates to Anopheles stephensi. As to the kind of experiment: Anti-insecticidal activity against female Anopheles stephensi mosquitoes assessed as mosquito survival treated after 18 to 22 hrs starvation using 70 ng/ml compound containing human O+ blood meal via artificial membrane measured after 14 days relative to control.
The subject of assay [3] is Plasmodium berghei. Kind of assay: Anti-plasmodial activity against hepatic stage GFP-expressing Plasmodium berghei infected in human Huh-7 cells assessed as parasite invasion of host cells treated at IC90 measured after 48 hrs of post-infection by flow cytometry. A general note: A flow cytometer gives signals particle by particle.
Assay [4] concerns Plasmodium berghei. Kind of assay: In vivo antiplasmodial activity against Balb/c mouse infected with luciferase expressing Plasmodium berghei infected in red blood cells assessed as parasitemia in blood by measuring bioluminescence at 2 mg/kg, oral gavage 4 consecutive treatment measured upto day 8. The note with it: time 8.0 day.
For assay [5], the system named is Plasmodium berghei. As to the kind of experiment: Anti-plasmodial activity against hepatic stage GFP-expressing Plasmodium berghei infected in human Huh-7 cells assessed as parasite invasion of host cells treated at IC90 measured after 2 hrs of post-infection by flow cytometry.
The test system of assay [6] is Plasmodium berghei. As to the kind of experiment: In vivo antiplasmodial activity against Balb/c mouse infected with luciferase expressing Plasmodium berghei infected in red blood cells assessed as parasitemia in blood by measuring bioluminescence at 50 mg/kg, oral gavage 4 consecutive treatment measured upto day 8. The note with it: time 8.0 day.

Broadly, the IC50 is the concentration that inhibits the measured activity by half. A high value points to weaker potency in that assay. Broadly, the IC90 is the point of the concentration-response curve where the effect stands at 90%.

On to `CCC(C)[C@H]1O[C@]2(CC[C@@H]1C)C[C@@H]1C[C@@H](C/C=C(\C)[C@@H](O[C@H]3C[C@H](OC)[C@@H](O[C@H]4C[C@H](OO)[C@@H](OC(=O)CCl)[C@H](C)O4)[C@H](C)O3)[C@@H](C)/C=C/C=C3\CO[C@@H]4[C@H](O[Si](C)(C)C(C)(C)C)C(C)=C[C@@H](C(=O)O1)[C@]34O)O2` (stereo not given in full), for which the outcome with Plasmodium berghei [1] was inactive.

Take `CCC(C)[C@H]1O[C@]2(CC[C@@H]1C)C[C@@H]1C[C@@H](C/C=C(\C)[C@@H](O[C@H]3C[C@H](OC)[C@@H](O[C@H]4C[C@H](OO)[C@@H](O)[C@H](C)O4)[C@H](C)O3)[C@@H](C)/C=C/C=C3\CO[C@@H]4[C@H](O[Si](C)(C)C(C)(C)C)C(C)=C[C@@H](C(=O)O1)[C@]34O)O2` (stereo not given in full): the half-maximal inhibitory concentration (IC50) was 3.69 µM in the assay on Plasmodium berghei [2] and 0.7 µM in the assay on Plasmodium falciparum. In the assay on Plasmodium berghei [1], the Activity entry was “Dose-Dependent Effect”.

On to `CCC(C)[C@H]1O[C@]2(CC[C@@H]1C)C[C@@H]1C[C@@H](C/C=C(\C)[C@@H](O[C@H]3C[C@H](OC)[C@@H](OC(=O)CCl)[C@H](C)O3)[C@@H](C)/C=C/C=C3\CO[C@@H]4[C@H](O)C(C)=C[C@@H](C(=O)O1)[C@]34O)O2` (stereo not given in full), for which, in the assay on Plasmodium berghei [1], the outcome was inactive.

In turn, `CCC(C)[C@H]1O[C@]2(CC[C@@H]1C)C[C@@H]1C[C@@H](C/C=C(\C)[C@@H](O[C@H]3C[C@H](OC)[C@@H](O)[C@H](C)O3)[C@@H](C)/C=C/C=C3\CO[C@@H]4[C@H](O)C(C)=C[C@@H](C(=O)O1)[C@]34O)O2` (stereo not given in full) displayed a concentration for half-maximal inhibition (IC50) with Plasmodium berghei [2] of 5.63 µM. The result with Anopheles stephensi was Active. In addition, the result with Plasmodium berghei [1] was inactive.

Take `CCC(C)[C@H]1O[C@]2(CC[C@@H]1C)C[C@@H]1C[C@@H](C/C=C(\C)[C@@H](O[C@H]3C[C@H](OC)[C@@H](O[C@H]4C[C@H](OO)[C@@H](O)[C@H](C)O4)[C@H](C)O3)[C@@H](C)/C=C/C=C3\CO[C@@H]4[C@H](O)C(CO)=C[C@@H](C(=O)O1)[C@]34O)O2` (stereo not given in full): the midpoint of inhibition with Plasmodium berghei [2], the IC50, lay at 2.22 µM. For the same compound, the outcome with Anopheles stephensi was Active. The outcome in the assay on Plasmodium berghei [1] was inactive.

In the case of `CCC(C)[C@H]1O[C@]2(CC[C@@H]1C)C[C@@H]1C[C@@H](C/C=C(\C)[C@@H](O[C@H]3C[C@H](OC)[C@@H](OC(=O)CCl)[C@H](C)O3)[C@@H](C)/C=C/C=C3\CO[C@@H]4[C@H](O[Si](C)(C)C(C)(C)C)C(C)=C[C@@H](C(=O)O1)[C@]34O)O2` (stereo not given in full), the outcome in the assay with Plasmodium berghei [1] was inactive.

`CCC(C)[C@H]1O[C@]2(CC[C@@H]1C)C[C@@H]1C[C@@H](C/C=C(\C)[C@@H](O[C@H]3C[C@H](OC)[C@@H](O)[C@H](C)O3)[C@@H](C)/C=C/C=C3\CO[C@@H]4[C@H](O[Si](C)(C)C(C)(C)C)C(C)=C[C@@H](C(=O)O1)[C@]34O)O2` (stereo not given in full): the IC50 in the assay with Plasmodium berghei [2] amounted to 2.91 µM; in the assay on Plasmodium falciparum, 0.72 µM. Also, the Activity result in the assay on Plasmodium berghei [1] is “Dose-Dependent Effect”.

In the assay with Plasmodium berghei [2], `CCC(C)[C@H]1O[C@]2(CC[C@@H]1C)C[C@@H]1C[C@@H](C/C=C(\C)[C@@H](O[C@H]3C[C@H](OC)[C@@H](OC(=O)CNC4CCNCC4)[C@H](C)O3)[C@@H](C)/C=C/C=C3\CO[C@@H]4[C@H](O)C(C)=C[C@@H](C(=O)O1)[C@]34O)O2` (stereo not given in full) registered an IC50 of 5.7 µM. Moreover, the result with Anopheles stephensi was Active. In addition, the outcome with Plasmodium berghei [1] was inactive.

For `CCC(C)[C@H]1O[C@]2(CC[C@@H]1C)C[C@@H]1C[C@@H](C/C=C(\C)[C@@H](O[C@H]3C[C@H](OC)[C@@H](O)[C@H](C)O3)[C@@H](C)/C=C/C=C3\CO[C@@H]4[C@H](O)C(CO)=C[C@@H](C(=O)O1)[C@]34O)O2` (stereo not given in full), in the assay with Plasmodium berghei [2], inhibition was half-maximal at 2.6 µM (IC50). In addition, in the assay on Anopheles stephensi, the result was Active. For the same compound, the result in the assay with Plasmodium berghei [1] was inactive.

`CCC(C)[C@H]1O[C@]2(CC[C@@H]1C)C[C@@H]1C[C@@H](C/C=C(\C)[C@@H](O[C@H]3C[C@H](OC)[C@@H](O[C@H]4C[C@H](OO)[C@@H](OC(=O)CNC5CCNCC5)[C@H](C)O4)[C@H](C)O3)[C@@H](C)/C=C/C=C3\CO[C@@H]4[C@H](O)C(C)=C[C@@H](C(=O)O1)[C@]34O)O2` (stereo not given in full) returned a concentration for half-maximal inhibition (IC50) in the assay on Plasmodium berghei [2] of 5.8 µM. In addition, the outcome in the assay with Anopheles stephensi and with Plasmodium berghei [1] was inactive.

With `CCOC(=O)c1c(C)nc(OCc2cn(CC(=O)O[C@H]3[C@H](C)O[C@@H](O[C@@H]4/C(C)=C/C[C@@H]5C[C@@H](C[C@]6(CC[C@H](C)[C@@H](C(C)CC)O6)O5)OC(=O)[C@@H]5C=C(C)[C@@H](O)[C@H]6OC/C(=C\C=C\[C@@H]4C)[C@]65O)C[C@@H]3OC)nn2)nc1-c1cc(OC)c(OC)cc1[N+](=O)[O-]` (stereo not given in full), the values for the IC50 in the assay on Plasmodium berghei [2] and with Plasmodium falciparum were 1.54 µM and 0.11 µM, respectively. This compound also yielded an IC90 with Plasmodium berghei [2] of 3.18 µM. Also, the result in the assay with Plasmodium berghei [3] was Active. The result with Plasmodium berghei [4] and in the assay with Plasmodium berghei [5] was inactive. The Activity entry in the assay with Plasmodium berghei [1] was “Dose-Dependent Effect”.

For the compound `CCC(C)[C@H]1O[C@]2(CC[C@@H]1C)C[C@@H]1C[C@@H](C/C=C(\C)[C@@H](O[C@H]3C[C@H](OC)[C@@H](O[C@H]4C[C@H](OO)[C@@H](OC(=O)CCl)[C@H](C)O4)[C@H](C)O3)[C@@H](C)/C=C/C=C3\CO[C@@H]4[C@H](O)C(C)=C[C@@H](C(=O)O1)[C@]34O)O2` (stereo not given in full), the IC50 in the assay with Plasmodium berghei [2] amounted to 2.61 µM; with Plasmodium falciparum, 0.3 µM. Also, the outcome with Anopheles stephensi was Active. Moreover, in the assay on Plasmodium berghei [1], the Activity entry is “Dose-Dependent Effect”.

Turning to `CCOC(=O)c1c(C)nc(OCc2cn(CC(=O)O[C@H]3[C@H](C)O[C@@H](O[C@H]4[C@H](C)O[C@@H](O[C@@H]5/C(C)=C/C[C@@H]6C[C@@H](C[C@]7(CC[C@H](C)[C@@H](C(C)CC)O7)O6)OC(=O)[C@@H]6C=C(C)[C@@H](O)[C@H]7OC/C(=C\C=C\[C@@H]5C)[C@]76O)C[C@@H]4OC)C[C@@H]3OC)nn2)nc1-c1cc(OC)c(OC)cc1[N+](=O)[O-]` (stereo not given in full), the half-inhibitory concentration (IC50) amounted to 2.33 µM in the assay on Plasmodium berghei [2] and 0.03 µM in the assay on Plasmodium falciparum. It took 4.28 µM to reach the 90% level with Plasmodium berghei [2] (IC90). Moreover, the outcome in the assay with Plasmodium berghei [3] was Active. Besides, the outcome in the assay on Plasmodium berghei [4] and in the assay with Plasmodium berghei [5] was inactive. Moreover, the Activity result in the assay on Plasmodium berghei [1] was “Dose-Dependent Effect”.

In the assay on Plasmodium berghei [2], `CCC(C)[C@H]1O[C@]2(CC[C@@H]1C)C[C@@H]1C[C@@H](C/C=C(\C)[C@@H](O[C@H]3C[C@H](OC)[C@@H](O[C@H]4C[C@H](OO)[C@@H](O)[C@H](C)O4)[C@H](C)O3)[C@@H](C)/C=C/C=C3\CO[C@@H]4[C@H](O)C(C)=C[C@@H](C(=O)O1)[C@]34O)O2` (stereo not given in full) registered a concentration for half-maximal inhibition (IC50) of 1.5 µM and a 90% effect concentration (IC90) of 3.1 µM. Also, inhibition in the assay on Plasmodium falciparum was half-maximal at 0.46 µM (IC50). For the same compound, in the assay on Plasmodium berghei [1], the Activity entry was “Dose-Dependent Effect”.

As to `CCN(CC)CCCC(C)Nc1ccnc2cc(Cl)ccc12` (stereo not given), in the assay with Plasmodium berghei [6], the outcome was Active.

`CCC(C)[C@H]1O[C@]2(CC[C@@H]1C)C[C@@H]1C[C@@H](C/C=C(\C)[C@@H](O)[C@@H](C)/C=C/C=C3\CO[C@@H]4[C@H](O)C(CO)=C[C@@H](C(=O)O1)[C@]34O)O2` (stereo not given in full) had a half-inhibitory concentration (IC50) with Plasmodium berghei [2] of 1.64 µM. For the same compound, in the assay with Anopheles stephensi, the outcome was Active. Also, in the assay on Plasmodium berghei [1], the result was inactive.
